{
  "source": "patent US12286618B2",
  "about": "“Lactic acid bacteria” (priority 2018, dated 2025)",
  "biological_target": "Streptococcus thermophilus glucokinase (GlcK) DGCC7710 variant E275K, strain DSM32587 (DGCC12534), SEQ ID NO: 22 (Streptococcus thermophilus, UniProt Q5M4Y5, E275K)",
  "sequence (Q5M4Y5 entry or part of it E275K)": "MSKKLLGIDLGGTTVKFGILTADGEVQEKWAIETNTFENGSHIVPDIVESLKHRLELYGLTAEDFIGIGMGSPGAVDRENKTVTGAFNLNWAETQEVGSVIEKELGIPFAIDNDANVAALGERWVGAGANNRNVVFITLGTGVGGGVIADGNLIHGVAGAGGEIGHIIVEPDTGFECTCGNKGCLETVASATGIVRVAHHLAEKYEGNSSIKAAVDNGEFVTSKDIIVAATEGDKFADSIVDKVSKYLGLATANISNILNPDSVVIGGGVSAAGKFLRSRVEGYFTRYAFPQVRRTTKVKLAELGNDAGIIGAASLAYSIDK",
  "conditions": "substrate glucose (0, 5, 10, 15, 20 mM); 1 mM ATP; pH 7.2; 30° C.; crude extract; mean of three independent experiments",
  "protocol": "A fresh overnight culture of the Streptococcus thermophilus strain to be assayed in M17 containing 30 g/L lactose is obtained and used to inoculate at 1% (vol/vol) 10 ml of fresh M17 30 g/L lactose. Cells are harvested by centrifugation (6000 g, 10 min, 4° C.) at a 600 nm optical density (OD600) of 0.8+/−0.2, washed in 5 ml cold GLCK buffer (5 mM MgCl2, 10 mM K2HPO4/KH2PO4 [pH 7.2]), and resuspended in 500 μl cold GLCK buffer. EDTA-free protease inhibitors “cOmplete™” (Roche, supplier reference 04693132001) is added in GLCK buffer as described by the provider. […] Total protein content is determined by using the FLUKA Protein Quantification Kit-Rapid (ref 51254). The glucokinase activity in the cell extracts is determined spectrophotometrically by a glucose-6-phosphate dehydrogenase (G-6PDH, EC1.1.1.49): NADPH-coupled assay (Porter et al., 1982), essentially as described by Pool et al. (2006). […] The optical density at 340 nm is measured for 5 minutes by using a Synergy HT multi-detection microplate reader (BIO-TEK). […]\nA fresh overnight culture of a Streptococcus thermophilus strain in M17 containing 30 g/L lactose was obtained and used to inoculate at 1% (vol/vol) 10 ml of fresh M17 30 g/L lactose. […] Total protein content was determined by using the FLUKA Protein Quantification Kit-Rapid (ref 51254). […]",
  "data": [
    {"compound": "OC[C@H]1OC(O)[C@H](O)[C@@H](O)[C@@H]1O", "note": "(stereo partly shown) [glucose]", "values": [
      {"measurement": "Vmax Glucokinase", "value": 914, "unit": "U/g total protein extract"}
    ]}
  ]
}
